What follows are compounds tested against CXCR3 (Macaca fascicularis, UniProt A0A2K5UV19) (assay: functional cellular assay measuring calcium flux in CXCR3 transfected cells (block of CXCR3/IP-10 interaction)). Conditions: IP-10 induced intracellular calcium flux; Cyno-CHO cells stably expressing recombinant CXCR3 and G-alpha-16.
Type: cell-based
Outline: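 Cyno-CHO cells stably co-expressing recombinant CXCR3 and G-alpha-16, loaded with Ca-4 dye (HBSS, 10 mM HEPES pH 7.4, 2 mM probenecid) for 1 h at 37 °C. Compound (10 microM final) preincubated 15 min at room temperature, then IP-10 added at EC80. Intracellular calcium flux read by fluorescence (ex 480/em 540 nm).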

CXCR3, sequence (A0A2K5UV19 entry or part of it): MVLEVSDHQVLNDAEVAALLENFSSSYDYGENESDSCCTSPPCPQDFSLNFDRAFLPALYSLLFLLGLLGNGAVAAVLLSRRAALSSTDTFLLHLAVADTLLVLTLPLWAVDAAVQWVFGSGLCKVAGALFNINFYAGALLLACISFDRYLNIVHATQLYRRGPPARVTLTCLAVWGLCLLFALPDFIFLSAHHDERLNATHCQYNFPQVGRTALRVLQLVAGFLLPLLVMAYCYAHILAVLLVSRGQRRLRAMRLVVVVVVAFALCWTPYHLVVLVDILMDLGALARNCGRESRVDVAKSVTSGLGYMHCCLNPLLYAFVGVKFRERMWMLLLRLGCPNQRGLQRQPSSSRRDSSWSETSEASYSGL

IC50	Compound
8.4 nM	O=C(Nc1cnc2ccccc2c1)c1ccccc1N1CCN(C(=O)Cn2ccc3cccnc32)CC1 [2-[4-(2-Pyrrolo[2,3-b]pyridin-1-yl-acetyl)-piperazin-1-yl]-N-quinolin-3-yl-benzamide]
8.5 nM	Cc1cc(C)n(CC(=O)N2CCN(c3ccccc3C(=O)Nc3ccc(Br)nc3)CC2)n1 [N-(6-Bromo-pyridin-3-yl)-2-{4-[2-(3,5-dimethyl-pyrazol-1-yl)-acetyl]-piperazin-1-yl}-benzamide]
16 nM	O=C(Nc1ccncc1)c1ccccc1N1CCN(C(=O)Cc2cn3ccccc3n2)CC1 [2-[4-(2-Imidazo[1,2-a]pyridin-2-yl-acetyl)-piperazin-1-yl]-N-pyridin-4-yl-benzamide]
12 nM	Cc1csc(NC(=O)c2ccccc2N2CCN(C(=O)Cn3nc(C)cc3C)CC2)n1 [2-{4-[2-(3,5-Dimethyl-pyrazol-1-yl)-acetyl]-piperazin-1-yl}-N-(4-methyl-thiazol-2-yl)-benzamide]
4.7 nM	Cc1cc(C)n(CC(=O)N2CCN(c3ccccc3NC(=O)c3ccc(Cl)cc3)CC2)n1 [4-Chloro-N-(2-{4-[2-(3,5-dimethyl-pyrazol-1-yl)-acetyl]-piperazin-1-yl}-phenyl)-benzamide]
3.4 nM	COc1ccc(C(=O)NCC(=O)N2CCN(c3ccccc3C(=O)Nc3ccncc3)CC2)cc1 [4-Methoxy-N-(2-oxo-2-{4-[2-(pyridin-4-ylcarbamoyl)-phenyl]-piperazin-1-yl}-ethyl)-benzamide]
7 nM	Cc1cc(C)n(CC(=O)N2CC=C(c3ccc(Cl)cc3NC(=O)c3cccc(Cl)c3)CC2)n1 [3-Chloro-N-(5-chloro-2-{1-[2-(3,5-dimethyl-pyrazol-1-yl)-acetyl]-1,2,3,6-tetrahydro-pyridin-4-yl}-phenyl)-benzamide]

Further lines, the compound ahead of its results:

Compound	IC50
Cc1cc(C)n(CC(=O)N2CCN(c3ccccc3C(=O)Nc3nc4ccc(S(C)(=O)=O)cc4s3)CC2)n1 [2-{4-[2-(3,5-Dimethyl-pyrazol-1-yl)-acetyl]-piperazin-1-yl}-N-(6-methanesulfonyl-benzothiazol-2-yl)-benzamide]	6.6 nM
COc1ccc(C(=O)NCC(=O)N2CCN(c3ccccc3C(=O)Nc3cccnc3)CC2)cc1F [3-Fluoro-4-methoxy-N-(2-oxo-2-{4-[2-(pyridin-3-ylcarbamoyl)-phenyl]-piperazin-1-yl}-ethyl)-benzamide]	19.5 nM
COc1cc(NC(=O)c2cc(F)ccc2N2CCN(C(=O)CN3CCCCC3=O)CC2)ccn1 [5-Fluoro-N-(2-methoxy-pyridin-4-yl)-2-{4-[2-(2-oxo-piperidin-1-yl)-acetyl]-piperazin-1-yl}-benzamide]	9 nM
O=C(Nc1ccccc1)c1ccccc1N1CCN(C(=O)Cn2ccc3cccnc32)CC1 [N-Phenyl-2-[4-(2-pyrrolo[2,3-b]pyridin-1-yl-acetyl)-piperazin-1-yl]-benzamide]	3.4 nM
Cc1cc(C)n(CC(=O)N2CCN(c3ccccc3C(=O)Nc3ccc(C#N)nc3)CC2)n1 [N-(6-Cyano-pyridin-3-yl)-2-{4-[2-(3,5-dimethyl-pyrazol-1-yl)-acetyl]-piperazin-1-yl}-benzamide]	4.2 nM
O=C(Nc1ccncc1)c1ccccc1N1CCN(C(=O)CN2Cc3ccccc3C2=O)CC1 [2-{4-[2-(1-Oxo-1,3-dihydro-isoindol-2-yl)-acetyl]-piperazin-1-yl}-N-pyridin-4-yl-benzamide]	5.1 nM
O=C(Nc1cncc(F)c1)c1ccccc1N1CCN(C(=O)Cn2ccc3ccncc32)CC1 [N-(5-Fluoro-pyridin-3-yl)-2-[4-(2-pyrrolo[2,3-c]pyridin-1-yl-acetyl)-piperazin-1-yl]-benzamide]	1.3 nM
Cc1cc(C)n(CC(=O)N2CCN(c3ccccc3C(=O)Nc3ccc(S(C)(=O)=O)cc3)CC2)n1 [2-{4-[2-(3,5-Dimethyl-pyrazol-1-yl)-acetyl]-piperazin-1-yl}-N-(4-methanesulfonyl-phenyl)-benzamide]	8.8 nM
COc1cccc(NC(=O)c2ccccc2N2CCN(C(=O)Cn3nc(C)cc3C)CC2)c1 [2-{4-[2-(3,5-Dimethyl-pyrazol-1-yl)-acetyl]-piperazin-1-yl}-N-(3-methoxy-phenyl)-benzamide]	4.3 nM
